Experimental data published in US20260137701A1, “CHOLESTENOIC ACID (CA) AND A SULFATED DERIVATIVE THEREOF, 3[BETA]-SULFATE-5-CHOLESTENOIC ACID (CA3S), AS ENDOGENOUS EPIGENETIC REGULATORS” (priority 2022, published 2026).

Assays:
AMPK = test: Western blot analysis of AMPK protein; assay type: cell-based, human; settings: HepG-2, high glucose media, 20 μM CA, 24 hours
Experimental: Specific proteins were analyzed by western blot. The proteins were extracted using M-PER™ Mammalian Protein Extraction Reagents (Fisher Scientific). For each sample, 20 μg of proteins were separated on 8%-12% SDS polyacrylamide gel electrophoresis (SDS-PAGE) gels. Electrophoresis was performed at 100V for 15 min and 200V for another 25 min in a Bio-Rad mini-gel system. After electrophoresis, samples were transferred onto a polyvinylidene difluoride (PVDF) membrane at 30V for 50 min. The specific proteins on the membrane were detected by incubation with anti-AMPKα1/2 (Santa Cruz Biotechnologies) primary antibody at 4° C. overnight, followed by further incubation with an appropriate horseradish peroxidase (HRP)-conjugated secondary antibody (Bio-Rad) at room temperature for 1 hr. Each positive band was quantified by Advanced Image Data Analyzer (Aida, Straubenhardt, Germany).

HepG-2 cells = test: Untargeted lipidomics analysis; assay type: cell-based, human
Experimental: HepG-2 cells were cultured in DMEM medium with HG for 72 hours followed by treating with 20 μM CA for 24, 48, and 72 hours. The cells were harvested with 500 μl 1× PBS, and sent to Creative Proteomics Co., Ltd (New York, USA) for untargeted lipidomics analysis. Samples were thawed and 1.5 mL chloroform:methanol (2:1, v/v) added to sample, vortexed for 1 min, and followed by sonication for 30 min, 4° C. Then centrifuge 10 min at 12,000 rpm, 4° C., transfer the lower phase to a new tube, dry under the nitrogen. The dried extract with 200 μl of isopropyl alcohol:methanol (1:1, v/v); add 5 μl LPC (12:0) for internal standard. Finally, centrifuge 10 min at 12,000 rpm, 4° C.; transfer the supernatant for LC-MS analysis. Separation is performed by UltiMate™ 3000 LC combined with Q Exactive™ MS (Thermo) and screened with ESI-MS. The LC system is comprised of ACQUITY UPLC® BEH C18 (100×2.1 mm×1.7 μm) with UltiMate™ 3000 LC. The mobile phase is composed of solvent A (60% ACN+40% H2O+10 mM HCOONH4) and solvent B (10% ACN+90% isopropyl alcohol+10 mM HCOONH4) with a gradient elution (0-10.5 min, 30%-100% B; 10.5 min-12.5 min, 100% B; 12.5-12.51 min, 100%-30% B; 12.51-16.0 min, 30% B). The flow rate of the mobile phase is 0.3-1 mL·min. The column temperature is maintained at 40° C., and the sample manager temperature is set at 4° C. Mass spectrometry parameters in ESI+ and ESI− mode are listed as follows: ESI+: Heater Temp 300° C.; Sheath Gas Flow rate, 45 arb; Aux Gas Flow Rate, 15 arb; Sweep Gas Flow Rate, larb; spray voltage, 3.0 KV; Capillary Temp, 350° C.; S-Lens RF Level, 30%. ESI−: Heater Temp 300° C., Sheath Gas Flow rate, 45 arb; Aux Gas Flow Rate, 15 arb; Sweep Gas Flow Rate, larb; spray voltage, 3.2 KV; Capillary Temp, 350° C.; S-Lens RF Level, 60%.

## CC(CCC[C@@H](C)[C@H]1CC[C@H]2[C@@H]3CC=C4C[C@@H](O)CC[C@]4(C)[C@H]3CC[C@]12C)C(=O)O (stereo partly drawn) [CA, 3β-hydroxy-5-cholestenoic acid]
AMPK
  protein levels of AMPK: significantly increased
HepG-2 cells; 20 μM CA, 48 hours
  average decreased percentage of ChE (cholesterol ester): 47%
  average decreased percentage of DG (Diglycerides): 76%
  average decreased percentage of FA: 65%
  average decreased percentage of MG (Monoglycerides): 53%
  average decreased percentage of TG (Triglycerides): 70%
HepG-2 cells; HG medium 72 hours, then 20 μM CA
  lipid levels (GP, SP, GL, ST, FA): significantly decreased
